The IC50 is the concentration that gives 50% inhibition. One may read the AUC(0-t) as exposure summed from dosing to a finite time, without extrapolation to infinity. Lower therefore signals less exposure. As a reminder, the Cmax is the highest concentration seen after dosing. For orientation: Tmax means the time at which the peak concentration occurs.

Data set [1] has as its target Mnk1 (Homo sapiens (Human), UniProt Q9BUB5). Kind of data set: biochemical.
For data set [2] the following is noted: female, Balb/c, mouse, in vivo, po, 10 mg/kg.
Data set [3] can be described thus: in vivo. The conditions noted are these: female, Balb/c, mouse, po, 10 mg/kg; for AUC(0-t): AUClast; for half-life: T½.
For data set [4], the target named is Mnk2 (Homo sapiens (Human), UniProt Q9HBH9). Kind of data set: biochemical.
Data set [5] in a line: Pharmacokinetics in Balb/c mice, single intravenous bolus administration. In kind it is in vivo. The conditions noted are these: intravenous bolus 1 mg/kg, formulation 10DMA/15EtOH/35PEG300/40D5W, gender F.

Chain of Mnk1 (Q9BUB5 whole entry): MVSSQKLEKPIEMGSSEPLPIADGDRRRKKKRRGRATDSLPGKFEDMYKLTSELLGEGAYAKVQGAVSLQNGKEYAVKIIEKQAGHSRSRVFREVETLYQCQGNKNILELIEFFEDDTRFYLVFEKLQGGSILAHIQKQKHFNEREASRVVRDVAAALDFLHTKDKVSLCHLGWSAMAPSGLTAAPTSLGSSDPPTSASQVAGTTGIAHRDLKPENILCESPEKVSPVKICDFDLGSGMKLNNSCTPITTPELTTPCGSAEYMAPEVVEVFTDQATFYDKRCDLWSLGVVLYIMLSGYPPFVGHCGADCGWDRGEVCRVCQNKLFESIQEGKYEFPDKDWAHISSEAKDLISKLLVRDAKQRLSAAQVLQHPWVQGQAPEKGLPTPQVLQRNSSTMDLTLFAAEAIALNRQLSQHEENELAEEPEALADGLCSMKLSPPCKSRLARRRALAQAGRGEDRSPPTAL
Chain of Mnk2 (Q9HBH9 whole entry): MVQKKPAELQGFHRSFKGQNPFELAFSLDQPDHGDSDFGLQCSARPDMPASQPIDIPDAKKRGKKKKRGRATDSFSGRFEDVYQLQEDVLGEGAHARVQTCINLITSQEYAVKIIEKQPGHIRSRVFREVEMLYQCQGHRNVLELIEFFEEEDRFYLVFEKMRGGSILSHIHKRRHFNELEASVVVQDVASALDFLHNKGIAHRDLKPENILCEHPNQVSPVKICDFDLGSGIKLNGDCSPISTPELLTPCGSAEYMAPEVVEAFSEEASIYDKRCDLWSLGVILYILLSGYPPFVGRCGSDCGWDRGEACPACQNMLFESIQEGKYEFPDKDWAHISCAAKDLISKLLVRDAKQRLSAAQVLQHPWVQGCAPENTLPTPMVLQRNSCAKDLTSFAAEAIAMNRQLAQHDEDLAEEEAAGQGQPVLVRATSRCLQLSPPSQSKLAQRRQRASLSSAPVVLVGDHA

Regarding `Cl.O=C1NC2(CCCNC2)n2c1c(Cl)cc(Nc1cc(NC(=O)C3CC3)ncn1)c2=O` (stereo not shown) [Cpd. No. 60, N-(6-((8-chloro-1,5-dioxo-1,5-dihydro-2H-spiro[imidazo[1,5-a]pyridine-3,3′-piperidin]-6-yl)amino)pyrimidin-4-yl)cyclopropanecarboxamide hydrochloride], in data set [1], the concentration for half-maximal inhibition (IC50) was less than 10 nM. The same molecule displayed a Tlast in data set [2] of 4 h. In data set [3], the AUC(0-t) was 78.2 ng·h/mL, the highest level (Cmax) was 36 ng/mL, the Tmax was 1 h and the half-life was 2.21 h.

For `Cl.Nc1cc(Nc2cc(Cl)c3n(c2=O)C2(CCC(F)(F)CC2)NC3=O)ncn1` [Cpd. No. 99, 6-[(6-aminopyrimidin-4-yl)amino]-8-chloro-4′,4′-difluoro-spiro[2H-imidazo[1,5-a]pyridine-3,1′-cyclohexane]-1,5-dione hydrochloride], in data set [1], the IC50 is less than 10 nM. The same molecule came in with an IC50 in data set [4] of less than 10 nM. The molecule further registered a Tlast in data set [2] of 8 h. For the same molecule, in data set [3], the AUC(0-t) stood at 1380 ng·h/mL, the Cmax turned out to be 400 ng/mL, the Tmax was 0.3 h and the half-life is 1.6 h.

Molecule `Nc1cc(Nc2cc(Cl)c3n(c2=O)C2(CCCC2)NC3=O)ncn1` [Cpd. No. 94, 6-[(6-aminopyrimidin-4-yl)amino]-8-chloro-spiro[2H-imidazo[1,5-a]pyridine-3,1′-cyclopentane]-1,5-dione] had an IC50 in data set [1] of less than 10 nM. Besides, the AUC(0-inf) in data set [5] (female, mouse, plasma, read-out: AUCINF_obs) is 812 ng·h/mL. In data set [5] (female, mouse, plasma, read-out: T½ (converted)), the half-life is 5.81 h. In addition, the Vd in data set [5] (female, mouse, plasma, read-out: Vss) was found to be 12.2 L/kg. Also, the Cl_obs in data set [5] is 20.5 mL/min/kg. In data set [2], this molecule came in with a Tlast of 8 h. In addition, in data set [3], the AUC(0-t) is 6070 ng·h/mL, the Cmax came to 1800 ng/mL, the Tmax was determined as 0.5 h and the half-life is 2 h.

In data set [4], `Cc1cc(Nc2cc(N)ncn2)c(=O)n2c1C(=O)NC2(C)C.Cl` [Cpd. No. 102, 6-((6-aminopyrimidin-4-yl)amino)-3,3,8-trimethyl-2,3-dihydroimidazo[1,5-a]pyridine-1,5-dione hydrochloride] had an IC50 of less than 10 nM. In data set [3], the highest concentration (Cmax) came out at 1800 ng/mL, the Tmax came out at 0.3 h and the half-life is 1.4 h.

In turn, `CC1(C2CCCC2)N(C#N)C(=O)c2ccc(Nc3cc(N)ncn3)c(=O)n21` (stereo not shown) [Cpd. No. 118, 6-[(6-aminopyrimidin-4-yl)amino]-3-cyclopentyl-3-methyl-1,5-dioxo-imidazo[1,5-a]pyridine-2-carbonitrile] registered an IC50 in data set [4] of less than 10 nM.

The values are drawn from patent publication US9669031B2, “MNK inhibitors and methods related thereto” (eFFECTOR Therapeutics, Inc., priority 2014, dated 2017).
